Laboratory results as given in publication PMC12903969, “Discovery of a Novel and Potent Kir4.1 Inhibitor as a Safe and Rapid‐Onset Antidepressant Agent in Mice” (Advanced Science, 2025).
Several values for one entry are separate records, joined by “and”; a condition that tells them apart may be missing. Equal entries are not always repeated. Where two headings read alike, the source gives them in different places.

What was measured:
[1] = tested on: Kir4.1 cKO astrocytes; test: Patch clamp of Kir4.1 cKO primary astrocytes; type: cell-based, mouse; details: tamoxifen-treated Kir4.1 cKO astrocytes, 3 µM
Protocol: Astrocytes were isolated and cultured as previously described.^[ [16] ^] Briefly, the cortices from P1‐P4 mouse pups were dissected and incubated for 25 min in Hank's Balanced Salt Solution (22.5 ml) with 2.5% trypsin (2.5 ml) at 37 °C. Cells were dissociated in cultured medium (DMEM/F12 supplemented with 10% fetal bovine serum and 1% penicillin and streptomycin) and filtered with a 70‐µm cell strainer. Cell suspensions were cultured in PDL‐pretreated 75‐cm^2 flasks for the initial seven days, with half of the medium replaced every 2 days. Subsequently, the cultures were shaken at 220 rpm for 6 h at 37 °C to remove microglia and oligodendrocytes from the astrocyte layers. […]
Whole‐cell patch‐clamp recordings were obtained either in transiently transfected CHO‐K1 cells or in primary cultured astrocytes at room temperature using standard patch‐clamp techniques with an Axopatch‐700B amplifier (Axon Instruments). […] Macroscopic currents generated by expressed potassium channels were recorded under the voltage‐clamp conditions with an internal pipette solution composed of (in mM): 140 KCl, 5 NaCl, 1 CaCl2, 1 MgCl2, 10 HEPES, and 10 EGTA, pH 7.2 adjusted with KOH. […] Astrocytic resting membrane potentials were recorded under current‐clamp conditions (I = 0 pA) using standard internal and external solutions, determined immediately after achieving whole‐cell mode.

[2] = target: T1, Kir2.1 (Homo sapiens, UniProt P63252); test: Whole-cell patch clamp, Kir2.1; type: cell-based
T1 construct: host or cells: CHO-K1
T1 sequence (P63252 1-427): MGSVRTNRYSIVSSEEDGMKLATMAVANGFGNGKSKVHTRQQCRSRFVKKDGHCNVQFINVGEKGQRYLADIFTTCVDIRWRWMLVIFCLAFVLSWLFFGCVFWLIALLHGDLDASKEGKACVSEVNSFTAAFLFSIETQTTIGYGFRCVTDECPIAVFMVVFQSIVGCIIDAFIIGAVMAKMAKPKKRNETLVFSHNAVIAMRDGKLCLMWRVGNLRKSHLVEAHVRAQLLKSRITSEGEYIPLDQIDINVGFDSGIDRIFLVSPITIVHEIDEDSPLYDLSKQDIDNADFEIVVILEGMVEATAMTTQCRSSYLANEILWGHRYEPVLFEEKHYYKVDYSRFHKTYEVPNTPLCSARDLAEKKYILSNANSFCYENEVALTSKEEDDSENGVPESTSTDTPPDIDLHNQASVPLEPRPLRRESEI
Protocol: Plasmids encoding WT human potassium channels Kir1.1, Kir2.1, Kir2.2, Kir4.1, and Kir4.2 were obtained from the Beijing Genomics Institute. All point mutations were constructed using the QuickChange II Site‐Directed Mutagenesis Kit (Stratagene) and subsequently verified by sequencing.
CHO‐K1 cells were maintained in DMEM/F12 growth medium containing 10% fetal bovine serum. Plasmids encoding the target genes (3600 ng) and enhanced green fluorescent protein (400 ng) were cotransfected into cells using Lipofectamine 2000 (Invitrogen) in accordance with the manufacturer's instructions. Cells were seeded onto poly‐d‐lysine (PDL)‐coated glass coverslips 1 h prior to electrophysiological recordings. All cells were cultured under standard conditions of 5% CO2 at 37 °C.
Whole‐cell patch‐clamp recordings were obtained either in transiently transfected CHO‐K1 cells or in primary cultured astrocytes at room temperature using standard patch‐clamp techniques with an Axopatch‐700B amplifier (Axon Instruments). The signals were filtered at 2 kHz and sampled at 20 kHz using the Digidata 1440A interface (Axon Instruments). The resistance of borosilicate glass pipettes was typically 2–4 MΩ when filled with the internal solution. Drug application was facilitated using a BPS perfusion system (ALA Scientific Instruments). Macroscopic currents generated by expressed potassium channels were recorded under the voltage‐clamp conditions with an internal pipette solution composed of (in mM): 140 KCl, 5 NaCl, 1 CaCl2, 1 MgCl2, 10 HEPES, and 10 EGTA, pH 7.2 adjusted with KOH. The external solution contained (in mM): 140 NaCl, 5 KCl, 2 CaCl2, 1 MgCl2, 10 glucose, and 10 HEPES, pH 7.4 adjusted with NaOH. Currents were elicited with a hyperpolarized voltage at −120 mV from the holding potential of −80 mV, followed by a ramp voltage depolarizing to +50 mV. Astrocytic resting membrane potentials were recorded under current‐clamp conditions (I = 0 pA) using standard internal and external solutions, determined immediately after achieving whole‐cell mode.

[3] = tested on: mice; test: Acute forced swim test (FST); type: in vivo; details: 30 and 60 mg kg−1
Protocol: Mice were placed individually in a transparent glass cylinder (25 cm high, 10 cm wide) filled with water (temperature 23–25 °C) to a depth of 10 cm, and prevented from making contact with the bottom. Mice behaviors were videotaped from each side. The observation period lasted for 6 min, with the final 4 min used to measure immobile behavior, which was processed using the AnyMaze Tracking System (Stoelting).

[4] = target: T2, 5-HT2A receptor (Homo sapiens, UniProt P28223); test: 5-HT2A functional assay (Fluo-4 calcium, FDSS); type: cell-based
T2 construct: expressed in transfected cells
T2 sequence (P28223 whole entry): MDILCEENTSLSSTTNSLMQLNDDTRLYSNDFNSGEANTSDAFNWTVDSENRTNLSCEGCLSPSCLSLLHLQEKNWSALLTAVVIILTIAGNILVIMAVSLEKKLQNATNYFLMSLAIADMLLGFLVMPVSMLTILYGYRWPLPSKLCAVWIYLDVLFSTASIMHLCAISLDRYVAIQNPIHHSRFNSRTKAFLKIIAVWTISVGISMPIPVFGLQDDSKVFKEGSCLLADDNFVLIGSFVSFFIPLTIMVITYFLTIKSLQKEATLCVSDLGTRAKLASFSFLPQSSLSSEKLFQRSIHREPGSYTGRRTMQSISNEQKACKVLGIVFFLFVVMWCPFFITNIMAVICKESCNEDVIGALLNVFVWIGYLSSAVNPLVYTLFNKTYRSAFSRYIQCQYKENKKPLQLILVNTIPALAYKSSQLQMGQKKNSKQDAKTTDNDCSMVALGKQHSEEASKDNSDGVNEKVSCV
Protocol: Cells with inducible expression of target receptor were cultured in 175‐cm^2 flasks until ≈80% confluence, washed once with phosphate‐buffered saline (PBS), and dissociated using 0.25% trypsin–EDTA. After neutralization with culture medium and centrifugation (800 rpm, 3 min), the cells were resuspended, counted, and seeded onto poly‐D‐lysine‐coated 96‐well black plates at a density of 4 × 10^4 cells/well. Expression of the target receptor was induced with 1 µg mL^−1 doxycycline. After 30 min at room temperature, the plates were incubated at 37 °C, 5% CO2 for 18−24 h until reaching ≈90% confluence. The medium was replaced with Ca^2⁺‐free extracellular buffer, washed once, and incubated with Fluo‐4 AM for 60 min at 37 °C in the dark. After washing twice with extracellular buffer, extracellular buffer was added (80 µL/well), and the cells were incubated for an additional 20 min at room temperature before fluorescence recording. Real‐time fluorescence changes were recorded using an FDSS/µCell system at 480 nm excitation and 540 nm emission with a sampling rate of 1 Hz. After a 10‐s baseline, the test compounds were added (20 µL/well), and fluorescence was recorded for 180 s. Subsequently, […] was added (20 µL/well), and the signals were monitored for a total of 360 s.
The agonistic effect (%) of compounds was calculated as follows: (1) Agonist%=Rcompound−Rcontrol/Rcontrol×100% where R control is the maximal fluorescence ratio after the addition of 0.5% DMSO and R compoundis the ratio obtained after compound treatment. Fluorescence response curves and EC50 values were used to evaluate the agonistic potency. The extracellular (Ca^2+‐free) buffer contained (in mM): 140 NaCl, 5 KCl, 1 MgCl2, 10 glucose, 10 HEPES, 2 probenecid; pH adjusted to 7.4 with NaOH.

c1ccc2c(c1)oc1ccc(Nc3ccnc(NCCCN4CCOCC4)n3)cc12 [JX3212, N^4-(dibenzo[b,d]furan-2-yl)-N^2-(3-morpholinopropyl)pyrimidine-2,4-diamine]
JX3212-induced effects in Kir4.1 cKO astrocytes (in words) [1]: abolished
inhibition at 3 µM ([2]; 3 µM, mean ± SEM, read-out: inhibition of Kir2.1): 49.9 ± 4.35%
Kir isoforms: Kir2.1 inhibition, single recordings ([2]; JX3212 3 µM (Fig 2A)): 46.776 and 54.8667
inhibition at 3 µM ([2]; JX3212 3 µM (Fig 2A), read-out: Kir isoforms: Kir2.1 inhibition, single recordings): 48.1%
immobility time in acute FST (in words) [3]: significantly reducing immobility time
EC50 ([4]; agonistic effect): > 60 µM
activation at 60 µM ([4]; read-out: 5-HT2A agonistic effect, replicates, concentration 60 (presumably µM)): 61.8%
Emax ([4]; read-out: 5-HT2A max activation%): 58.6%
